Source: article PMC4745926, “Absorption, Metabolism, and Excretion by Freely Moving Rats of 3,4-DHPEA-EDA and Related Polyphenols from Olive Fruits (Olea europaea)” (Journal of Nutrition and Metabolism, 2016)
“Also recorded” adds a separate entry of the source.

Tests used:
[1] = Urinary excretion after intravenous administration; assay type: in vivo, Wistar ST rats
Experimental: SPF Wistar ST rats (6 weeks of age, male, 180 ± 20 g of body weight) were purchased from Japan SLC Inc. (Hamamatsu, Japan). The rats were housed in an air-conditioned room at 22 ± 2°C under cycles of 12 hours dark and 12 hours light and given free access to a commercial diet and water for a week. The rats were then fasted for over 16 hours before the experiments. The present study was approved by the Animal Care and Use Committee at Kagawa University, and the rat treatment conformed to the Rules of Animal Experiments at Kagawa University. 3,4-[…] (300 mg/kg body weight; 936.51 μmol/kg) dissolved in 50% polyethylene glycol aqueous solution was administered orally via a stomach tube to the portal vein cannulated rats. Blood samples (450 μL) were then collected using a heparinized syringe attached to the cannula before administration and 5, 15, 30, 60, 120, and 240 min after administration. Urine was also collected before administration and 0 to 2 h and 2 to 4 h after administration. For intravenous administration, 3,4-[…] (10 mg/kg; 31.22 μmol/kg) was injected into the jugular vein, and blood (450 μL) was collected using a heparinized syringe before administration and 5, 15, 30, 60, 120, and 240 min after administration via the jugular vein cannula. The blood (450 μL) collected was immediately cooled on ice and centrifuged at 15,000 rpm for 5 min at 4°C to obtain over 200 μL plasma. Urine was also collected before administration and 0 to 2 h and 2 to 4 h after administration. Bile was collected via the bile duct cannula before administration and 0 to 2 h and 2 to 4 h after intravenous administration. The collected plasma, urine, and bile were immediately stored in an ice box until further analyses. HT (oral administration: 100 mg/kg; 648.66 μmol/kg, intravenous administration: 10 mg/kg; 64.87 μmol/kg) and Ole (oral administration: 300 mg/kg; 555.02 μmol/kg, intravenous administration: 10 mg/kg; 18.50 μmol/kg) were investigated using the same method as described above. Metabolites were deconjugated by using β-glucuronidase (500 U) and sulfatase (50 U) in 50 μL 625 mM MOPS (pH 6.8), which was added to 200 μL of plasma, urine, or bile. The mixture was incubated for 45 min at 37°C and subjected to extraction using QuEChERS [33]. […] Shimadzu, Kyoto, Japan) equipped with a Shim-pack XR-ODS column (3.0 mm I.D. × 100 mm; Shimadzu, Kyoto, Japan) at 40°C with a mobile phase of 0.5% TFA-1% acetonitrile aqueous solution (A) and 0.5% TFA-75% acetonitrile aqueous solution (B). The elution conditions are described as follows: isocratic elution of 0% B was maintained for 4.0 min; linear gradient 0 to 4% B, 4.0-4.5 min; linear gradient 4.0-16.0% B, 4.5-16.0 min; linear gradient 16.0-100% B, 16.0-25.0 min; isocratic elution of 100% B, 25.0-26.0 min; and linear gradient 100 to 0% B, 26.0-26.1 min, with a flow rate of 0.5 mL/min. Injection volume was 50 μL. All eluted peaks were detected at 279 nm with a diode array detector (SPD-M20A; Shimadzu, Kyoto, Japan).

[2] = Recovery of 3,4-DHPEA-EDA spiked into rat plasma; assay type: in vitro ADME; conditions: recovery yield check
Experimental: After oral administration of 3,4-DHPEA-EDA, HT (27.7 AUC0→4 h-i.g./Dosei.g.), HVAOH (4.2 AUC0→4 h-i.g./Dosei.g.), and HVA (4.5 AUC0→4 h-i.g./Dosei.g.) were detected in the portal plasma. Low absorption of 3,4-DHPEA-EDA is reported in some papers. […] Plasma components such as serum albumin, serum lipoprotein, and glycoprotein may have bound 3,4-DHPEA-EDA and hindered its detection. 3,4-DHPEA-EDA as a dialdehyde form might quickly bind to proteins bearing primary amines such as globulins, albumins, and other functional proteins in blood plasma, as malondialdehyde does. […] To our knowledge, this is the first report of the formation of HVAOH from 3,4-DHPEA-EDA.

HT in urine [1]	HVA in urine [1]	HVAOH in urine [1]	Total metabolites observed in the urine [1] [%]	Recovery of 3,4-DHPEA-EDA spiked into rat plasma [2]	Detection of intact Ole and metabolites in urine ([1]; listed as Ole)	Structure (SMILES)	Detection of intact 3,4-DHPEA-EDA in urine [1]
6.3 % of dose	2.6 % of dose	4.6 % of dose	13	could not be detected		CC=C(C=O)C(CC=O)CC(=O)OCCc1ccc(O)c(O)c1 (stereo not shown) [3,4-DHPEA-EDA, 3,4-dihydroxyphenylethyl elenolate dialdehydic form]	not observed; also recorded: not detected
					not detected at all	C/C=C1/[C@H](O[C@@H]2O[C@H](CO)[C@@H](O)[C@H](O)[C@H]2O)OC=C(C(=O)OC)[C@H]1CC(=O)OCCc1ccc(O)c(O)c1 [Oleuropein, reference compound]	
